Data from ChEMBL document CHEMBL4270507, “Covalent binding design strategy: A prospective method for discovery of potent targeted anticancer agents” (Eur J Med Chem, 2017).

The compounds below were run on GTPase KRas (Homo sapiens), P01116 [G12C] (assay: Binding affinity to hexa-histidine-tagged recombinant human K-Ras isoform 2 G12C mutant (1 to 169 residues) expressed in Escherichia coli BL21 (DE3) at 10 uM after 24 hrs).

Row | SMILES | Activity
1 | C=CS(=O)(=O)NC1CCN(C(=O)CNc2cc(Cl)c(Cl)cc2O)CC1 | 87%
2 | C=CS(=O)(=O)NC1CCN(C(=O)CNc2c(Cl)cc(Cl)c3c2OC(C)(C)O3)CC1 | 50%
3 | C=CC(=O)N1CCN(C(=O)CNc2cc(Cl)c(Cl)cc2OC)CC1 | 28%
4 | C=CC(=O)N1CCN(C(=O)CNc2cc(C(F)(F)F)c(Cl)cc2OC)CC1 | 14%
5 | C=CC(=O)N1CCN(C(=O)CNc2cc(I)c(Cl)cc2O)CC1 | 100%
6 | C=CS(=O)(=O)NC1CCN(C(=O)CNc2cc(I)c(Cl)cc2OC)CC1 | 100%

What follows are compounds tested against Tyrosine-protein kinase BTK (Homo sapiens, UniProt Q06187) (assay: Inhibition of BTK (unknown origin)).

Row | SMILES | IC50
7 | Nc1ncnc2c1c(-c1ccc(Oc3ccccc3)cc1)nn2C1CCCN(C(=O)/C=C/Cl)C1 (configuration not stated) | 0.52 nM
